Our source for the solubility, EC50 and IC50 values is ChEMBL document CHEMBL4420076, “Amylin and calcitonin receptor agonist” (2017).

The nature of data set [1]: Solubility in 100 mM bistrispropane buffer at pH 7.5 incubated for 18 hrs by UPLC analysis. The class given is physicochemical.
A short description of data set [2]: Solubility in 100 mM bistrispropane buffer at pH 7.0 incubated for 18 hrs by UPLC analysis. The class given is physicochemical.
Data set [3] can be described thus: Solubility in 100 mM glycylglycine buffer at pH 5.0 incubated for 18 hrs by UPLC analysis. It is filed as physicochemical.
The target of data set [4] is T1, Amylin receptor AMY3; CALCR/RAMP3 (Homo sapiens, UniProt O60896+P30988).
T1 sequence (P30988 whole entry): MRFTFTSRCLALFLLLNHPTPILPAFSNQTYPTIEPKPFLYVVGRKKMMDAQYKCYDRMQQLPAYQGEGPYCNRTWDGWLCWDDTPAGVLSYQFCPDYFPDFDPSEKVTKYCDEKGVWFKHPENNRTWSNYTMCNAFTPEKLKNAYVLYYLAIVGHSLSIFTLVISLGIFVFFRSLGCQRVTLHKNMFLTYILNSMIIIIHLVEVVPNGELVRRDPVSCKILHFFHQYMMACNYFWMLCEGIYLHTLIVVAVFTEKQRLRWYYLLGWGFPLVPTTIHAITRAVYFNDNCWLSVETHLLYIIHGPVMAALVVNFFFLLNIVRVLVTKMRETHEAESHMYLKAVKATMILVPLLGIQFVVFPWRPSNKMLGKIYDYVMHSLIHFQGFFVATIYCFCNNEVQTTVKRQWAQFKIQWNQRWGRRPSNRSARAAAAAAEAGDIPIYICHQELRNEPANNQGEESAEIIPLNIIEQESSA
T1 sequence (O60896 whole entry): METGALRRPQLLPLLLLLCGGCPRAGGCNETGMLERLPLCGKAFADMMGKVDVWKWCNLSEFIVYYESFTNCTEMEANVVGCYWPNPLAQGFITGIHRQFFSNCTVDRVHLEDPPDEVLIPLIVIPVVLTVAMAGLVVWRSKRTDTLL
As to the kind of experiment: Agonist activity at human amylin receptor expressed in BHK570 cells co-expressing RAMP3 assessed as increase in intracellular cAMP concentration incubated for 3 hrs in presence of 10% FBS by CRE luciferase reporter gene assay. The class given is functional, cell-based.

Data set [5] can be described thus: Solubility in 100 mM glycylglycine buffer at pH 4.0 incubated for 18 hrs by UPLC analysis. The class given is physicochemical.
The nature of data set [6]: Solubility in 100 mM bistrispropane buffer at pH 6.5 incubated for 18 hrs by UPLC analysis. It is filed as physicochemical.
Data set [7] in a line: Solubility in 100 mM glycylglycine buffer at pH 3.0 incubated for 18 hrs by UPLC analysis. The class given is physicochemical.
The nature of data set [8]: Solubility in 100 mM bistrispropane buffer at pH 6.0 incubated for 18 hrs by UPLC analysis. It is filed as physicochemical.
Data set [9] concerns the target T1, Amylin receptor AMY3; CALCR/RAMP3. Nature of the data set: Agonist activity at human amylin receptor expressed in BHK570 cells co-expressing RAMP3 assessed as increase in intracellular cAMP concentration incubated for 3 hrs in absence of albumin by CRE luciferase reporter gene assay. It is filed as functional, cell-based. (A reporter such as luciferase makes a cellular process visible.)

Data set [10] has as its target T2, Calcitonin receptor (Homo sapiens, UniProt P30988).
T2 sequence (P30988 whole entry): T1 sequence (P30988 whole entry)
As to the kind of experiment: Agonist activity at human calcitonin receptor expressed in BHK570 cells assessed as increase in intracellular cAMP concentration incubated for 3 hrs in presence of 10% FBS by CRE luciferase reporter gene assay. It is filed as functional, cell-based.

Data set [11] in a line: Solubility in 100 mM bistrispropane buffer at pH 8.0 incubated for 18 hrs by UPLC analysis. It is filed as physicochemical.
Data set [12] addresses T2, Calcitonin receptor. Nature of the data set: Agonist activity at human calcitonin receptor expressed in BHK570 cells assessed as increase in intracellular cAMP concentration incubated for 3 hrs in absence of albumin by CRE luciferase reporter gene assay. The class given is functional, cell-based.
Data set [13] concerns the target T1, Amylin receptor AMY3; CALCR/RAMP3. As to the kind of experiment: Displacement of [125I]-labeled rat amylin from human amylin receptor expressed in BHK tkts13 whole cells co-expressing RAMP3 incubated for 60 mins by scintillation proximity assay. The class given is cell-based. (In general: Displacement assays read how much labelled ligand stays bound in the presence of the test substance.)

Numbered stars: 1 amine (or outer) side, 2 acyl side, 3 side chain; on linkers, the order of the positions; unused ones are H or OH. Peptide text beside a SMILES is read from it. * marks the point of attachment. C20 diacid = O=C(O)CCCCCCCCCCCCCCCCCCC(=O)*; C18 diacid = O=C(O)CCCCCCCCCCCCCCCCC(=O)*; γGlu = O=C(O)[C@H](CCC(=O)[*:2])N[*:1]

For orientation: solubility means the dissolved amount per volume that the medium holds. A lower solubility goes with a poorly soluble substance. The EC50 is the concentration needed to bring the measured effect to its halfway point. Consider `CC(C)C[C@H](NC(=O)[C@H](C)NC(=O)[C@H](C)NC(=O)[C@@H](NC(=O)[C@H](CO)NC(=O)[C@H](CC(C)C)NC(=O)[C@H](CCC(=O)O)NC(=O)[C@H](CO)NC(=O)[C@H](C)NC(=O)CC[C@H](NC(=O)CCCCCCCCCCCCCCCCC(=O)O)C(=O)O)[C@@H](C)O)C(=O)NCC(=O)N[C@@H](CCCNC(=N)N)C(=O)N[C@@H](CC(C)C)C(=O)N[C@@H](CO)C(=O)N[C@@H](C)C(=O)N[C@@H](CCC(=O)O)C(=O)N[C@@H](CC(C)C)C(=O)N[C@@H](Cc1cnc[nH]1)C(=O)N[C@@H](CCC(=O)O)C(=O)N[C@@H](CC(C)C)C(=O)N[C@@H](C)C(=O)N[C@H](C(=O)N[C@@H](CC(C)C)C(=O)N1CCC[C@H]1C(=O)N[C@@H](CCCNC(=N)N)C(=O)N[C@H](C(=O)N[C@@H](CCC(=O)O)C(=O)N[C@H](C(=O)NCC(=O)N[C@@H](CO)C(=O)N1CCC[C@H]1C(=O)N[C@@H](CO)C(=O)N1CCC[C@H]1C(N)=O)[C@@H](C)O)[C@@H](C)O)[C@@H](C)O` ({C18 diacid-γGlu}-ASELSTAALGRLSAELHELATLPRTETGSPSP-NH2), for which the solubility at 18 h in data set [1], in [2], in data set [3], in [5], in data set [6] and in data set [7] was ≥ 200 µM throughout. Further, the solubility at 18 h in data set [8] and in data set [11] was ≥ 200 µM each time. In addition, the EC50 in data set [4] is 0.039 nM; in [9] it was 0.013 nM; at Calcitonin receptor [10], 0.019 nM; on Calcitonin receptor [12] it was 0.008 nM.
The IC50 is the concentration at which inhibition is half-maximal. Consider `CC(C)C[C@H](NC(=O)[C@H](C)NC(=O)[C@H](C)NC(=O)[C@@H](NC(=O)[C@H](CO)NC(=O)[C@H](CC(C)C)NC(=O)[C@H](CCC(=O)O)NC(=O)[C@H](CO)NC(=O)[C@H](C)NC(=O)CC[C@H](NC(=O)CCCCCCCCCCCCCCCCCCC(=O)O)C(=O)O)[C@@H](C)O)C(=O)NCC(=O)N[C@@H](CCCNC(=N)N)C(=O)N[C@@H](CC(C)C)C(=O)N[C@@H](CO)C(=O)N[C@@H](C)C(=O)N[C@@H](CCC(=O)O)C(=O)N[C@@H](CC(C)C)C(=O)N[C@@H](Cc1cnc[nH]1)C(=O)N[C@@H](CCC(=O)O)C(=O)N[C@@H](CC(C)C)C(=O)N[C@@H](C)C(=O)N[C@H](C(=O)N[C@@H](CC(C)C)C(=O)N1CCC[C@H]1C(=O)N[C@@H](CCCNC(=N)N)C(=O)N[C@H](C(=O)N[C@@H](CCC(=O)O)C(=O)N[C@H](C(=O)NCC(=O)N[C@H](C(=O)NCC(=O)N[C@H](C(=O)N1CCC[C@H]1C(N)=O)[C@@H](C)O)[C@@H](C)O)[C@@H](C)O)[C@@H](C)O)[C@@H](C)O` ({C20 diacid-γGlu}-ASELSTAALGRLSAELHELATLPRTETGTGTP-NH2), for which the solubility at 18 h in [1], in [2], in data set [3], in [5], in [6] and in data set [7] was ≥ 200 µM in each case. For the same compound, the solubility at 18 h in data set [8] and in [11] was ≥ 200 µM throughout. In addition, in [13], the IC50 was 0.606 nM. Further, the EC50 is 0.05 nM in [9], 0.056 nM on Calcitonin receptor [10] and 0.045 nM at Calcitonin receptor [12].
Take `CC(C)C[C@H](NC(=O)[C@H](C)NC(=O)[C@H](C)NC(=O)[C@@H](NC(=O)[C@H](CO)NC(=O)[C@H](CC(C)C)NC(=O)[C@H](CCC(=O)O)NC(=O)[C@H](CO)NC(=O)[C@H](C)NC(=O)CC[C@H](NC(=O)CCCCCCCCCCCCCCCCCCC(=O)O)C(=O)O)[C@@H](C)O)C(=O)NCC(=O)N[C@@H](CCCNC(=N)N)C(=O)N[C@@H](CC(C)C)C(=O)N[C@@H](CO)C(=O)N[C@@H](C)C(=O)N[C@@H](CCC(=O)O)C(=O)N[C@@H](CC(C)C)C(=O)N[C@@H](Cc1cnc[nH]1)C(=O)N[C@@H](CCC(=O)O)C(=O)N[C@@H](CC(C)C)C(=O)N[C@@H](CO)C(=O)N[C@H](C(=O)N[C@@H](Cc1ccc(O)cc1)C(=O)N1CCC[C@H]1C(=O)N[C@@H](CCCNC(=N)N)C(=O)N[C@H](C(=O)N[C@@H](CCC(=O)O)C(=O)N[C@H](C(=O)NCC(=O)N[C@@H](CO)C(=O)NCC(=O)N[C@@H](CO)C(=O)N[C@@H](Cc1ccc(O)cc1)C(N)=O)[C@@H](C)O)[C@@H](C)O)[C@@H](C)O` ({C20 diacid-γGlu}-ASELSTAALGRLSAELHELSTYPRTETGSGSY-NH2): the solubility at 18 h in data set [1], in [2], in data set [5], in data set [6], in data set [7] and in data set [8] was ≥ 200 µM each time. Besides, the solubility at 18 h in data set [11] was ≥ 200 µM. Also, the IC50 in data set [13] is 0.186 nM. The EC50 in [4] is 0.064 nM; in data set [9], 0.05 nM; on Calcitonin receptor [12], 0.034 nM.
Regarding `CC(C)C[C@H](NC(=O)[C@H](C)NC(=O)[C@H](C)NC(=O)[C@@H](NC(=O)[C@H](CO)NC(=O)[C@H](CC(C)C)NC(=O)[C@H](CCC(=O)O)NC(=O)[C@H](CO)NC(=O)[C@H](C)NC(=O)CC[C@H](NC(=O)CCCCCCCCCCCCCCCCCCC(=O)O)C(=O)O)[C@@H](C)O)C(=O)NCC(=O)N[C@@H](CCCNC(=N)N)C(=O)N[C@@H](CC(C)C)C(=O)N[C@@H](CO)C(=O)N[C@@H](CCC(=O)O)C(=O)N[C@@H](CCC(=O)O)C(=O)N[C@@H](CC(C)C)C(=O)N[C@@H](Cc1cnc[nH]1)C(=O)N[C@@H](CCC(=O)O)C(=O)N[C@@H](CC(C)C)C(=O)N[C@@H](C)C(=O)N[C@H](C(=O)N[C@@H](CC(C)C)C(=O)N1CCC[C@H]1C(=O)N[C@@H](CCCNC(=N)N)C(=O)N[C@H](C(=O)N[C@@H](CCC(=O)O)C(=O)N[C@H](C(=O)NCC(=O)N[C@@H](CO)C(=O)NCC(=O)N[C@@H](CO)C(=O)N1CCC[C@H]1C(N)=O)[C@@H](C)O)[C@@H](C)O)[C@@H](C)O` ({C20 diacid-γGlu}-ASELSTAALGRLSEELHELATLPRTETGSGSP-NH2), the solubility at 18 h in data set [1], in data set [2], in [3], in data set [5], in data set [6] and in data set [7] was ≥ 200 µM in each case. For the same compound, the solubility at 18 h in data set [8] and in data set [11] was ≥ 200 µM throughout. In addition, the figures for the EC50 (in data set [4]; in data set [9]; on Calcitonin receptor [12]) were 0.085 nM, 0.041 nM and 0.025 nM, respectively.
For the compound `CC(C)C[C@H](NC(=O)[C@H](C)NC(=O)[C@H](C)NC(=O)[C@@H](NC(=O)[C@H](CO)NC(=O)[C@H](CC(C)C)NC(=O)[C@H](CCC(=O)O)NC(=O)[C@H](CO)NC(=O)[C@H](C)NC(=O)[C@H](C)NC(=O)[C@H](CCC(=O)O)NC(=O)CC[C@H](NC(=O)CCCCCCCCCCCCCCCCCCC(=O)O)C(=O)O)[C@@H](C)O)C(=O)NCC(=O)N[C@@H](CCCNC(=N)N)C(=O)N[C@@H](CC(C)C)C(=O)N[C@@H](CO)C(=O)N[C@@H](C)C(=O)N[C@@H](CCC(=O)O)C(=O)N[C@@H](CC(C)C)C(=O)N[C@@H](Cc1cnc[nH]1)C(=O)N[C@@H](CCC(=O)O)C(=O)N[C@@H](CC(C)C)C(=O)N[C@@H](C)C(=O)N[C@H](C(=O)N[C@@H](Cc1ccc(O)cc1)C(=O)N1CCC[C@H]1C(=O)N[C@@H](CCCNC(=N)N)C(=O)N[C@H](C(=O)N[C@@H](CCC(=O)O)C(=O)N[C@H](C(=O)NCC(=O)N[C@@H](CO)C(=O)NCC(=O)N[C@@H](CO)C(=O)N1CCC[C@H]1C(N)=O)[C@@H](C)O)[C@@H](C)O)[C@@H](C)O` ({C20 diacid-γGlu}-EAASELSTAALGRLSAELHELATYPRTETGSGSP-NH2), the solubility at 18 h in [1], in data set [2], in data set [3], in data set [5], in [6] and in data set [7] was ≥ 200 µM throughout. For the same compound, the solubility at 18 h in data set [8] and in data set [11] was ≥ 200 µM throughout. The IC50 in data set [13] was 1.92 nM. Further, the half-maximal effective concentration (EC50) is 0.017 nM in [9], 0.113 nM at Calcitonin receptor [10] and 0.015 nM at Calcitonin receptor [12].
